According to patent US9957264B2 (Merck Sharp & Dohme Corp., priority 2013, dated 2018):

What was measured:
[1] = target: JAK1 (recombinant purified GST-tagged catalytic domain) (Homo sapiens (Human), UniProt P23458); assay: Jak Biochemical HTRF Assay (JAK1); conditions: [ATP] 31.8 μM
Outline: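 Read-out is the 665/615 nm time-resolved FRET ratio from Eu-pY20 antibody and streptavidin-Dylight 650 bound to phosphorylated biotin-peptide. Reactions ran 120 min at room temperature after ATP start. Inhibition normalized to untreated controls gave IC50 via 4-parameter fit.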

[2] = target: JAK2 (recombinant purified GST-tagged catalytic domain) (Homo sapiens (Human), UniProt O60674); assay: Jak Biochemical HTRF Assay (JAK2); conditions: [ATP] 8.5 μM
Sequence of JAK2 (recombinant purified GST-tagged catalytic domain) (O60674 849-1124): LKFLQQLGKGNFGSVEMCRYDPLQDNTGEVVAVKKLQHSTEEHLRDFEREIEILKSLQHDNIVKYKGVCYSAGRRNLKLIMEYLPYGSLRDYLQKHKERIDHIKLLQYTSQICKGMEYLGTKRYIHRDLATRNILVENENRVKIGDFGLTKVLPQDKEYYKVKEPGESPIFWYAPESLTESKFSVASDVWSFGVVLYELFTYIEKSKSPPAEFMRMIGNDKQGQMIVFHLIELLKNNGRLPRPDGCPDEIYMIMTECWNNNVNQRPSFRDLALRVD

Sequence of JAK1 (recombinant purified GST-tagged catalytic domain) (P23458 875-1153): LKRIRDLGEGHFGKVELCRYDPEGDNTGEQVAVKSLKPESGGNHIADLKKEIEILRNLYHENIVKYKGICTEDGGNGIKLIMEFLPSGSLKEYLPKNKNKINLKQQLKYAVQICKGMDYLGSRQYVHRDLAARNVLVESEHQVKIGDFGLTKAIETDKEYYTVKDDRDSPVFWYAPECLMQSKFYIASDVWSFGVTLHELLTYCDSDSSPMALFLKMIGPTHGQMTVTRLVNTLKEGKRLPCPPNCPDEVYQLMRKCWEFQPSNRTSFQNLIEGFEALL

SMILES | IC50 [1] | IC50 [2]
CS(=O)(=O)c1ccc(Nc2nn(C3(CC#N)CCN(c4ccc(C(F)(F)F)cn4)CC3)c3cc[nH]c(=O)c23)cc1 [Example 15-4, 2-(4-(3-((4-(methylsulfonyl)phenyl)amino)-4-oxo-4,5-dihydro-1H-pyrazolo[4,3-c]pyridin-1-yl)-1-(5 (trifluoromethyl)pyridin-2-yl)piperidin-4-yl)acetonitrile] | 0.2 nM | 0.55 nM
Cc1cc(Nc2nn(C3(CC#N)CCN(c4ccc(C#N)cn4)CC3)c3cc[nH]c(=O)c23)ccc1C(=O)N1CCSCC1 [Example 15-5, 6-(4-(cyanomethyl)-4-(3-((3-methyl-4-(thiomorpholine-4-carbonyl)phenyl)amino)-4-oxo-4,5-dihydro-1H-pyrazolo[4,3-c]pyridin-1-yl)piperidin-1-yl)nicotinonitrile] | 0.15 nM | 0.17 nM
CS(=O)(=O)c1ccc(Nc2nn(C3(CC#N)CCN(c4ccc(Br)cn4)CC3)c3cc[nH]c(=O)c23)cc1 [Example 15-8, 2-(1-(5-bromopyridin-2-yl)-4-(3-((4-(methylsulfonyl)phenyl)amino)-4-oxo-4,5-dihydro-1H-pyrazolo[4,3-c]pyridin-1-yl)piperidin-4-yl)acetonitrile] | 0.09 nM | 0.41 nM
Cc1cc(Nc2nn(C3(CC#N)CCN(c4cc(C(F)(F)F)ccn4)CC3)c3cc[nH]c(=O)c23)ccc1C(=O)N1CCSCC1 [Example 16-1, 2-(4-(3-(3-methyl-4-(thiomorpholine-4-carbonyl)phenylamino)-4-oxo-4,5-dihydropyrazolo[4,3-c]pyridin-1-yl)-1-(4-(trifluoromethyl)pyridin-2-yl)piperidin-4-yl)acetonitrile] | 2.77 nM | 3.06 nM
Cc1cc(Nc2nn(C3(CC#N)CCN(c4cc(C(F)(F)F)ccn4)CC3)c3cc[nH]c(=O)c23)ccc1C(=O)N1CCC(F)(F)CC1 [Example 16-4, 2-(4-(3-(4-(4,4-difluoropiperidine-1-carbonyl)-3-methylphenylamino)-4-oxo-4,5-dihydropyrazolo[4,3-c]pyridin-1-yl)-1-(4-(trifluoromethyl)pyridin-2-yl)piperidin-4-yl)acetonitrile] | 2.01 nM | 2.01 nM
CC(F)(F)C(=O)N1CCC(CC#N)(n2nc(Nc3ccc(S(C)(=O)=O)cc3)c3c(=O)[nH]ccc32)CC1 [Example 17, 2-(1-(2,2-difluoropropanoyl)-4-(3-((4-(methylsulfonyl)phenyl)amino)-4-oxo-4,5-dihydro-1H-pyrazolo[4,3-c]pyridin-1-yl)piperidin-4-yl)acetonitrile] | 0.1 nM | 0.24 nM
N#CC[C@]1(n2nc(Nc3ccc(C(F)(F)F)cc3)c3c(=O)[nH]ccc32)CC[C@@H](Nc2ccccc2)CC1 [Example 18-3, Cis 2-(1-(4-oxo-3-((4-(trifluoromethyl)phenyl)amino)-4,5-dihydro-1H-pyrazolo[4,3-c]pyridin-1-yl)-4-(phenylamino)cyclohexyl)acetonitrile] | 41.1 nM | 1290 nM
N#CC[C@]1(n2nc(Nc3ccc(C(F)(F)F)cc3)c3c(=O)[nH]ccc32)CC[C@H](Nc2ccccc2)CC1 [Example 18-4, Trans 2-(1-(4-oxo-3-((4-(trifluoromethyl)phenyl)amino)-4,5-dihydro-1H-pyrazolo[4,3-c]pyridin-1-yl)-4-(phenylamino)cyclohexyl)acetonitrile] | 6.33 nM | 102 nM
N#CCC1(n2nc(Nc3ccc(C(F)(F)F)cc3)c3c(=O)[nH]ccc32)CCC(O)CC1 (stereo not drawn) [Example 18-5, (cis and trans) 2-(4-hydroxy-1-(4-oxo-3-((4-(trifluoromethyl)phenyl)amino)-4,5-dihydro-1H-pyrazolo[4,3-c]pyridin-1-yl)cyclohexyl)acetonitrile] | 4.14 nM | 84.6 nM
N#CC[C@]1(n2nc(Nc3ccc(Cl)cc3)c3c(=O)[nH]ccc32)CC[C@H](N2CC(F)C2)CC1 [Example 18-6, Trans 2-(1-(3-((4-chlorophenyl)amino)-4-oxo-4,5-dihydro-1H-pyrazolo[4,3-c]pyridin-1-yl)-4-(3-fluoroazetidin-1-yl)cyclohexyl)acetonitrile] | 0.09 nM | 1.75 nM
N#CC[C@]1(n2nc(Nc3ccc(Cl)cc3)c3c(=O)[nH]ccc32)CC[C@@H](N2CC(F)C2)CC1 [Example 18-7, Cis 2-(1-(3-((4-chlorophenyl)amino)-4-oxo-4,5-dihydro-1H-pyrazolo[4,3-c]pyridin-1-yl)-4-(3-fluoroazetidin-1-yl)cyclohexyl)acetonitrile] | 2.98 nM | 19.8 nM
COC1CN([C@H]2CC[C@](CC#N)(n3nc(Nc4ccc(Cl)cc4)c4c(=O)[nH]ccc43)CC2)C1 [Example 18-8, Trans 2-(1-(3-((4-chlorophenyl)amino)-4-oxo-4,5-dihydro-1H-pyrazolo[4,3-c]pyridin-1-yl)-4-(3-methoxyazetidin-1-yl)cyclohexyl)acetonitrile] | 0.03 nM | 2.53 nM
COC1CN([C@H]2CC[C@@](CC#N)(n3nc(Nc4ccc(Cl)cc4)c4c(=O)[nH]ccc43)CC2)C1 [Example 18-9, Cis 2-(1-(3-((4-chlorophenyl)amino)-4-oxo-4,5-dihydro-1H-pyrazolo[4,3-c]pyridin-1-yl)-4-(3-methoxyazetidin-1-yl)cyclohexyl)acetonitrile] | 1.14 nM | 102 nM
N#CC[C@]1(n2nc(Nc3ccc(Cl)cc3)c3c(=O)[nH]ccc32)CC[C@@H](NCC(F)(F)F)CC1 [Example 18-10, Cis 2-(1-(3-((4-chlorophenyl)amino)-4-oxo-4,5-dihydro-1H-pyrazolo[4,3-c]pyridin-1-yl)-4-((2,2,2-trifluoroethyl)amino)cyclohexyl)acetonitrile] | 74 nM | 1020 nM
N#CC[C@]1(n2nc(Nc3ccc(Cl)cc3)c3c(=O)[nH]ccc32)CC[C@H](NCC(F)(F)F)CC1 [Example 18-11, Trans 2-(1-(3-((4-chlorophenyl)amino)-4-oxo-4,5-dihydro-1H-pyrazolo[4,3-c]pyridin-1-yl)-4-((2,2,2-trifluoroethyl)amino)cyclohexyl)acetonitrile] | 0.22 nM | 2.2 nM
N#CCC1(n2nc(Nc3ccc(Cl)cc3)c3c(=O)[nH]ccc32)CCC(O)CC1 (stereo not drawn) [Example 18-12, Cis and trans 2-(1-(3-((4-chlorophenyl)amino)-4-oxo-4,5-dihydro-1H-pyrazolo[4,3-c]pyridin-1-yl)-4-hydroxycyclohexyl)acetonitrile] | 5.41 nM | 38.5 nM
N#CC[C@]1(n2nc(Nc3ccc(Cl)cc3)c3c(=O)[nH]ccc32)CC[C@@H](Nc2ccccc2)CC1 [Example 18-13, Cis 2-(1-(3-((4-chlorophenyl)amino)-4-oxo-4,5-dihydro-1H-pyrazolo[4,3-c]pyridin-1-yl)-4-(phenylamino)cyclohexyl)acetonitrile] | 65 nM | > 1500 nM
N#CC[C@]1(n2nc(Nc3ccc(Cl)cc3)c3c(=O)[nH]ccc32)CC[C@H](Nc2ccccc2)CC1 [Example 18-14, Trans 2-(1-(3-((4-chlorophenyl)amino)-4-oxo-4,5-dihydro-1H-pyrazolo[4,3-c]pyridin-1-yl)-4-(phenylamino)cyclohexyl)acetonitrile] | 1.71 nM | 32.4 nM
COC1CN([C@H]2CC[C@@](CC#N)(n3nc(Nc4ccc(OC(F)(F)F)cc4)c4c(=O)[nH]ccc43)CC2)C1 [Example 18-15, Cis 2-(4-(3-methoxyazetidin-1-yl)-1-(4-oxo-3-((4-(trifluoromethoxy)phenyl)amino)-4,5-dihydro-1H-pyrazolo[4,3-c]pyridin-1-yl)cyclohexyl)acetonitrile] | 151 nM | 1140 nM
COC1CN([C@H]2CC[C@](CC#N)(n3nc(Nc4ccc(OC(F)(F)F)cc4)c4c(=O)[nH]ccc43)CC2)C1 [Example 18-16, Trans 2-(4-(3-methoxyazetidin-1-yl)-1-(4-oxo-3-((4-(trifluoromethoxy)phenyl)amino)-4,5-dihydro-1H-pyrazolo[4,3-c]pyridin-1-yl)cyclohexyl)acetonitrile] | 0.15 nM | 1.43 nM
N#CC[C@]1(n2nc(Nc3ccc(OC(F)(F)F)cc3)c3c(=O)[nH]ccc32)CC[C@@H](Nc2ccccc2)CC1 [Example 18-17, Cis 2-(1-(4-oxo-3-((4-(trifluoromethoxy)phenyl)amino)-4,5-dihydro-1H-pyrazolo[4,3-c]pyridin-1-yl)-4-(phenylamino)cyclohexyl)acetonitrile] | 120 nM | 1100 nM
N#CC[C@]1(n2nc(Nc3ccc(OC(F)(F)F)cc3)c3c(=O)[nH]ccc32)CC[C@H](Nc2ccccc2)CC1 [Example 18-18, Trans 2-(1-(4-oxo-3-((4-(trifluoromethoxy)phenyl)amino)-4,5-dihydro-1H-pyrazolo[4,3-c]pyridin-1-yl)-4-(phenylamino)cyclohexyl)acetonitrile] | 7.27 nM | 54.7 nM
N#CC[C@]1(n2nc(Nc3ccc(OC(F)(F)F)cc3)c3c(=O)[nH]ccc32)CC[C@H](NC2CCCCC2)CC1 [Example 18-19, Trans 2-(4-(cyclohexylamino)-1-(4-oxo-3-((4-(trifluoromethoxy)phenyl)amino)-4,5-dihydro-1H-pyrazolo[4,3-c]pyridin-1-yl)cyclohexyl)acetonitrile] | 0.37 nM | 36.6 nM
N#CC[C@]1(n2nc(Nc3ccc(OC(F)(F)F)cc3)c3c(=O)[nH]ccc32)CC[C@@H](NC2CCCCC2)CC1 [Example 18-20, Cis 2-(4-(cyclohexylamino)-1-(4-oxo-3-((4-(trifluoromethoxy)phenyl)amino)-4,5-dihydro-1H-pyrazolo[4,3-c]pyridin-1-yl)cyclohexyl)acetonitrile] | 52.2 nM | > 1500 nM
N#CC[C@]1(n2nc(Nc3ccc(Cl)c(F)c3)c3c(=O)[nH]ccc32)CC[C@H](NC2CCCCC2)CC1 [Example 18-21, Trans 2-(1-(3-((4-chloro-3-fluorophenyl)amino)-4-oxo-4,5-dihydro-1H-pyrazolo[4,3-c]pyridin-1-yl)-4-(cyclohexylamino)cyclohexyl)acetonitrile] | 0.12 nM | 64.2 nM
